Source: patent US9073966B2, “Inhibition of sweat malodor” (Firmenich SA, priority 2005, dated 2015)

Tested on: production of (S)-3-methyl-3-sulfanylhexan-1-ol
Assay: Screening of potentially malodor-inhibiting compounds: micro-organisms incubated with the Cys-Gly precursor, VSC quantified by GC-AED (procedure of Example 6)
Format: cell-based
Settings: for inhibition of production of (S)-3-methyl-3-sulfanylhexan-1-ol: compounds added at 2 μmole
Procedure: Bacteria isolates were grown aerobically in the appropriate liquid media at 37° C. until OD600=1.0. Cells were harvested by centrifugation at 3000 g, 10 min, washed once with sterile 0.1M phosphate buffer (pH 6.0) and resuspended in fresh buffer. The concentration of individual strains incubated with the sweat precursor was between 1.10^+8 and 1.10^+10 cfu/mL. These freshly prepared bacteria (5 mL), were incubated with 0.1 mL of precursors (5 mg in 10 mL water), (or the sweat fraction, in Example 1 above), at 37° C. pH 6 in a close bottle. After the incubation time 1, 4 and 18 hours, 1 mL of ethyl acetate containing octanethiol and octadecane at 0.02 mg/mL was added and the fermentation broth was centrifuged at 16′000 g. The organic phase was directly injected on a GCSPB1 column coupled to MS and on a GCDMePeBetacdx chiral column coupled to AED detection. These experiments were repeated three times, two blanks were done with the micro-organism without the precursor and one with the precursor in the growing buffer only. No formation of sulfur compound was detected in blanks. The response factor for 1 μL injected of a solution 0.01 mg/mL of octanethiol was calculated in comparison of 1 μL injected of a racemic solution of 0.01 mg/mL of 3-methyl-3-sulphanylhexane-1-ol. The addition of both peaks areas (R/S) gave 280 (+/−5) and octanethiol 303 (+/−3) peaks surface over for injections so we used as an approximation a response factor of 1. Correlation factor for 1 μL injected on both column, were above 0.998 in the range of 1 to 10 ppm of (R/S)-3-methyl-3-sulfanylhexane-1-ol.
Micro-organisms suspended in fresh buffer (Example 5, detailed fermentation protocol) were split in two samples X and Y (negative control) of 5 mL.
[drawing 12] (obtained in Example 9) was added to sample X at a concentration of 2 μmol/L.
The samples comprising suspended micro-organisms and the compound to be screened were incubated at 37° C. for 30 min. […]
After the incubation times of 1, 4 and 18 hours, the increase of malodorous substance (compound 1 in FIG. 2) is briefly determined by sniffing of a trained person. […]
For the internal standard, the response factor for 1 μL injected of a solution 0.01 mg/mL of octanethiol was calculated in comparison of 1 μL injected of a racemic solution of 0.01 mg/mL of 3-methyl-3-sulphanylhexane-1-ol. […]
Stoichiometrically, 0.2 μmol of precursor produces 0.025 mg of VSC in 1 ml ethylacetate, if all precursor is metabolized. If less than […] of VSC is measured in sample X by the AED system, the screened compound, β-Cl-ala-gly, has the ability to reduce the development of malodor. […]

SMILES: C#CC[C@H](N)C(=O)NCC(=O)O [Compound VI, N-[(2S)-2-amino-4-pentynoyl]glycine]
- inhibition of production of (S)-3-methyl-3-sulfanylhexan-1-ol (procedure of Example 6): 75%

SMILES: Nc1cccc(C(=O)NCC(=O)O)c1 [Compound VII, N-[3-amino-benzoyl]glycine]
- effect on formation of metabolites like compound II upon screening (compound (VII) with Z being NH): clear and confirmed increase of metabolites
- production of (S)-3-methyl-3-sulfanylhexan-1-ol compared to the control (compound added at 2 μmole, procedure of Example 6): increased production

SMILES: N[C@@H]1C=C(C(=O)NCC(=O)O)SC1 [IIIa, N-{[(4R)-4-amino-4,5-dihydro-2-thienyl]carbonyl}glycine]
- inhibition of production of (S)-3-methyl-3-sulfanylhexan-1-ol (procedure of Example 6): 25%
